Results: US6429204B1, “Method of inhibiting cancer growth” (University of Miami, priority 1997, dated 2002)
Converted amounts (≈) assume the structure as drawn.

How the values were obtained:
[1] = tested on: HIV-related Kaposi's Sarcoma; assay: Oral dose escalation study in patients with Kaposi's Sarcoma; assay type: in vivo, human
Method: CMT-3 was administered orally, once daily, in a dose escalating fashion to 3-6 subjects per dose cohort. Patients with symptomatic visceral Kaposi's Sarcoma or severe tumor-associated edema were excluded. Antiretroviral therapy was permitted but not required. Study endpoints were grade 3 or grade 4 toxicity or progression of disease. Preliminary analysis was performed. Eighteen patients received CMT-3 in dosing cohorts of 25, 50 and 70 mg/m^2/day. The average age was 39 years (range, 25-57). Median CD4 count was 352 cells/mm^3 (range, 6-694). Prior therapy for Kaposi's Sarcoma was reported by 16 (89%) patients; prior antiretroviral therapy by 16 (89%) patients. Half of the patients had ≧50 lesions at baseline. Grade 3 or higher events, which were possibly/definitely related to study drug, were reported by 6 patients and consisted of photosensitivity, increased pain, headache, rash and pruritis.

LNCAP cells = assay: Alamar Blue viability assay, LNCAP; assay type: cell-based, human
Description: (§1) Several cancer cell lines and normal cells were examined in vitro to determine whether tetracycline compounds produce cytotoxic (cell killing) effects. A conventional assay for viability of cultured cells based on redox activity in the cells was employed (Pagé et al. 1993). The assay uses a redox dye Alamar Blue, which is a fluorogenic indicator dye that is converted to a fluorescent red product only when cells are carrying out electron transport activity, a widely accepted criterion of viability.
(§2) Cultured cells from three prostate tumor cell lines, LNCAP, DU-145, and PC-3, and normal prostate stromal cells obtained by biopsy of a normal person, were allowed to grow to confluence in multiwell microplates to minimize differences in proliferative activity among the cell types at the time of exposure to the test compound. CMT-3 was added to the wells at concentrations of 10 μM and 20 μM (50 μM also in the case of DU-145). At the start of the experiment, and again at 1, 2, and 3 days, selected wells were incubated with the indicator dye for 3 hr, and the fluorescence was measured on a Cytofluor 2300 fluorescent microplate reader.

[2] = MTS cytotoxicity assay, COLO 205; conditions: human, COLO 205 colon carcinoma cells, percent cytotoxicity, two days
Method: (§6) A panel of chemically modified tetracycline compounds and doxycycline were tested for cytotoxicity against two carcinomas: COLO 205 (a human colon carcinoma-derived cell line) and the E-10 clone of MDA-MB-231 (a human breast carcinoma-derived cell line). Cytoxicity was measured using a conventional assay for viability with a tetrazolium salt (MTS). Cells were grown in media containing the CMTs at concentrations ranging from 5 μM to 100 μM for two days. The cells were then incubated with the MTS for several hours before removal of the supernatant medium for determination of formazan, which is generated only by the viable cells. Results are expressed as percent cytotoxicity, which is simply the percent decline in measured formazan concentration in the sampled medium.

[3] = tested on: MMP-2 (gelatinase A) expressed by COLO 205 cells; assay: MMP protein expression by Western blot of conditioned medium, COLO 205 cells; assay type: cell-based, human; conditions: 24 hr, serum-free medium
Method: Two human cancer-derived cell lines were obtained from the American Type Culture Collection (ATCC) in Rockville, Md. The cell lines included COLO 205, a human colon cancer-derived cell line that expresses MMP-2 or gelatinase A, and E-10, a human breast cancer-derived cell line that expresses MMP-9 or gelatinase B.
Cells of each cell line were cultured in 75 cm^2 T-flasks in RPMI-1640 (Gibco) with 10% heat-inactivated fetal bovine serum (FBS) containing 100 units/mL penicillin and 100 μg/mL streptomycin. The cells were fed every two days, and passaged every week. The cells were grown to 80-90% confluence, and then the FBS-containing medium was replaced with a serum-free medium (SFM). CMT-3 (CollaGenex Pharmaceuticals, Inc., Newtown, Pa.) was added in several concentrations to the cells in SFM. Conditioned medium was collected after 24 hr, centrifuged to remove cell debris, and then assayed for MMP protein expression by Western blot using a conventional technique, and scanning the blots with a laser densitometer.

PC-3 tumor cells = assay: Alamar Blue viability assay, PC-3; assay type: cell-based, human
Description: as §1, §2

TSU-PR1 cells = assay: Matrigel invasion assay (Boyden chamber, MTT), TSU-PR1; assay type: cell-based, human; conditions: Homo sapiens; for IC50: TSU-PR1, 48 hr, read-out: 50% inhibitory dose (IC50), Matrigel invasion
Method: (§3) In this method, 4×10^5 tumor cells were plated on the top chamber of the Boyden chemotaxis assay chambers (Costar Transwell plates). The bottom side of the chamber was a 12 μm-pore polycarbonate filter layered with 0.5 mm thick layer of Matrigel. The bottom well contained a chemoattractant, a serum-free culture-conditioned medium from FHS 733 cells, a line of human fetal lung fibroblasts (ATCC No. HTB-157). Cancer cells (4×10^5) were plated in the top wells of the plates. Doxycycline or CMTs were diluted in a serum-free medium to 5 μg/mL, and were added to both top and bottom chambers. […] After 48 hr incubation, MTT was added to both the top and bottom wells (0.5 mg/mL), and incubation was continued for 4 hr. Wells were then emptied, and the cells from the undersides of the filter were pooled with those in the bottom wells with a filter tip. The reduced MTT (formazan) from top and bottom wells was solubilized with DMSO overnight, and absorbance (O.D.) at 515 nm was measured. The ratio of the O.D. from the bottom wells to that of the total (i.e., O.D. of top plus bottom wells) was taken as the invasive potential. […] The MTT assay procedure also normalizes the coincident inhibition due to the cytotoxic effects of the agents under investigation. Results presented are from three independent experiments.

TSU PR-1 = assay: Cytotoxicity GI50 (MTT and thymidine incorporation), TSU PR-1; assay type: cell-based; conditions: Homo sapiens, TSU-Pr1
Method: (§4) To confirm this observation, we compared the cytotoxicities of CMT-3 and doxycycline for a panel of common human prostate cancer cell lines. Cytotoxicity was measured using the MTT assay (see above) and a cellular thymidine incorporation assay as described by Lokeshwar et al. (1995a). The 50% growth inhibition (GI50) values obtained using both assays were identical. As shown in the data summarized in Table 3, below, CMT-3 was two- to eight-fold more cytotoxic than doxycycline.
(§5) Growth inhibition was calculated from linear regression of the dose-response curves generated for each experiment using log(dose) vs. cell proliferation (% of control). Correlation coefficient (r) was always ≧0.95 (negative). Results are presented as Mean±SEM of at least three GI50 values calculated from each experiment.

[4] = MTS cytotoxicity assay, E-10; conditions: human, E-10 clone of MDA-MB-231 breast carcinoma cells, percent cytotoxicity, two days
Method: as §6

Dunning MAT LyLu cells = assay: Matrigel invasion assay (Boyden chamber, MTT), MAT LyLu; assay type: cell-based, rat
Method: as §3

prostate cancer cells = assay: Invasive potential of prostate cancer cells in vitro (summary); assay type: cell-based; conditions: 5 μg/mL
DU 145 = assay: Cytotoxicity GI50 (MTT and thymidine incorporation), DU 145; assay type: cell-based; conditions: Homo sapiens
Method: as §4, §5

Question: With NC(=O)C1=C(O)CC2CC3Cc4cccc(O)c4C(=O)C3=C(O)C2(O)C1=O (centres unmarked) [CMT-3, 6-demethyl-6-deoxy-4-de(dimethylamino)tetracycline] as the molecule, how does the Partial responses ([1]; 25 mg/m^2/day cohort) read?
Answer: The Partial responses was 2 patients.

Question: And the photosensitivity ([1]; 25 mg/m^2/day cohort)?
Answer: Its photosensitivity is “no photosensitivity was observed”.

Question: And the Partial responses ([1]; 50 mg/m^2/day cohort)?
Answer: The Partial responses was 2 patients.

Question: And the Partial responses ([1]; 70 mg/m^2/day cohort)?
Answer: Its Partial responses is 3 patients.

Question: What about the Partial responses ([1]; all cohorts, eighteen patients, oral once daily) of the same molecule?
Answer: The Partial responses was 7 patients.

Question: What about the “Grade 3 or higher events possibly/definitely related to study drug” value ([1]; eighteen patients, 25, 50 and 70 mg/m^2/day) of the same molecule?
Answer: Its value is 6 patients.

Question: What about the tolerability ([1]; oral once daily, particularly 25 mg/m^2/day) of the same molecule?
Answer: Its tolerability is “well tolerated”.

Question: And the cytotoxicity (LNCAP cells; 10 μM, 24 hr)?
Answer: Its cytotoxicity is “nearly complete”.

Question: What about the “time to complete cytotoxicity” value (LNCAP cells; 20 μM) of the same molecule?
Answer: Its value is ≤ 24 h.

Question: What about the cytotoxicity at 2 days, 5 µM [2] of the same molecule?
Answer: Its cytotoxicity at 2 days, 5 µM is 17%.

Question: What about the cytotoxicity at 2 days, 10 µM [2] of the same molecule?
Answer: The cytotoxicity at 2 days, 10 µM was 28.8%.

Question: What about the cytotoxicity at 2 days, 20 µM [2] of the same molecule?
Answer: The cytotoxicity at 2 days, 20 µM was 52%.

Question: And the cytotoxicity at 2 days, 50 µM [2]?
Answer: The cytotoxicity at 2 days, 50 µM was 79%.

Question: What about the cytotoxicity at 2 days, 100 µM [2] of the same molecule?
Answer: Its cytotoxicity at 2 days, 100 µM is 85.6%.

Question: And the “Percent Inhibition of MMP Protein Expression” value ([3]; COLO 205, MMP-2, 10 μM)?
Answer: The value was 13.3%.

Question: What about the “Percent Inhibition of MMP Protein Expression” value ([3]; COLO 205, MMP-2, 20 μM) of the same molecule?
Answer: Its value is 66.9%.

Question: And the cytotoxicity (PC-3 tumor cells; 24 hr)?
Answer: Its cytotoxicity is “about 25%”.

Question: What about the cytotoxicity (PC-3 tumor cells; 48 hr) of the same molecule?
Answer: The cytotoxicity was ~50%.

Question: And the cytotoxicity (PC-3 tumor cells; 72 hr)?
Answer: Its cytotoxicity is ~75%.

Question: What about the IC50 (TSU-PR1 cells) of the same molecule?
Answer: Its IC50 is 1.7 ± 0.31 µg/mL (≈ 4.58 µM).

Question: And the GI50 (TSU PR-1)?
Answer: Its GI50 is 14.7 ± 2.64 µM.

Question: And the cytotoxicity at 2 days, 5 µM [4]?
Answer: Its cytotoxicity at 2 days, 5 µM is 0%.

Question: What about the “effect on invasive potential after pretreatment only” value (Dunning MAT LyLu cells; 48 hour pretreatment, no drug in the invasion chamber) of the same molecule?
Answer: The value was “only a moderate effect”.

Question: And the “inhibition of invasive/metastatic potential (Matrigel invasion)” value (Dunning MAT LyLu cells; MAT LyLu, 5 μg/mL, 48 hr)?
Answer: The value was “equally inhibited”.

Question: What about the inhibition at 5 µg/mL (prostate cancer cells) of the same molecule?
Answer: Its inhibition at 5 µg/mL is 90%.

Question: What about the GI50 (DU 145) of the same molecule?
Answer: The GI50 was 5.06 ± 1.18 µM.

Question: With C[C@H]1c2cccc(O)c2C(=O)C2=C(O)[C@]3(O)C(=O)C(C(N)=O)=C(O)[C@@H](N(C)C)[C@@H]3[C@@H](O)[C@@H]21 [Doxycycline, 6α-deoxy-5-hydroxy-tetracycline, reference compound] as the molecule, how does the cytotoxicity at 2 days, 5 µM [2] read?
Answer: Its cytotoxicity at 2 days, 5 µM is 0%.

Question: And the cytotoxicity at 2 days, 10 µM [2]?
Answer: The cytotoxicity at 2 days, 10 µM was 0%.

Question: And the cytotoxicity at 2 days, 20 µM [2]?
Answer: The cytotoxicity at 2 days, 20 µM was 45.7%.

Question: And the cytotoxicity at 2 days, 50 µM [2]?
Answer: The cytotoxicity at 2 days, 50 µM was 58.8%.

Question: And the cytotoxicity at 2 days, 100 µM [2]?
Answer: Its cytotoxicity at 2 days, 100 µM is 66.5%.

Question: And the inhibition at 5 µg/mL (TSU-PR1 cells; TSU-PR1, 5 μg/mL, 48 hr)?
Answer: The inhibition at 5 µg/mL was 8 ± 1.8%.

Question: What about the IC50 (TSU-PR1 cells) of the same molecule?
Answer: The IC50 was 27 ± 4.3 µg/mL (≈ 60.8 µM).

Question: What about the GI50 (TSU PR-1) of the same molecule?
Answer: Its GI50 is 41 ± 11 µM.

Question: What about the cytotoxicity at 2 days, 5 µM [4] of the same molecule?
Answer: The cytotoxicity at 2 days, 5 µM was 0%.

Question: What about the cytotoxicity at 2 days, 10 µM ([4]; 10 μM) of the same molecule?
Answer: The cytotoxicity at 2 days, 10 µM was 0%.

Question: What about the cytotoxicity at 2 days, 20 µM ([4]; 20 μM) of the same molecule?
Answer: Its cytotoxicity at 2 days, 20 µM is 4.5%.

Question: And the cytotoxicity at 2 days, 50 µM ([4]; 50 μM)?
Answer: The cytotoxicity at 2 days, 50 µM was 24.2%.

Question: What about the cytotoxicity at 2 days, 100 µM ([4]; 100 μM) of the same molecule?
Answer: The cytotoxicity at 2 days, 100 µM was 29.5%.

Question: And the inhibition at 5 µg/mL (Dunning MAT LyLu cells; Rattus norvegicus, MAT LyLu, 5 μg/mL, 48 hr, read-out: inhibition of invasive/metastatic potential (Matrigel invasion))?
Answer: The inhibition at 5 µg/mL was 68 ± 4.2%.

Question: And the GI50 (DU 145)?
Answer: The GI50 was 43.6 ± 9.36 µM.
